Literature values, collected in patent publication US20160115147A1, “PRO-DRUG COMPOUNDS” (Proximagen Limited, priority 2013, published 2016).

Key:
[1] = tested on: unique stereo-selective site in human brain
[2] = tested on: unique stereo-selective site in rat brain

CC(=O)c1ccc2c(c1)[C@H](NC(=O)c1ccc(F)c(Cl)c1)[C@H](O)C(C)(C)O2 [Tonabersat]
binding affinity to unique stereo-selective site [1]: high affinity | binding affinity to unique stereo-selective site [2]: high affinity
